Test results from ChEMBL document CHEMBL1201862, “PubChem BioAssay data set” (2004).
Where “and” joins values, the source holds several entries; their conditions need not be identical. Equal values may be shown once.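 48-hour exposure; five concentrations; linearly interpolated endpoints. GI50 marks 50% less growth.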 Calls of active or inactive are those of the source. Cut-off read from the data, not from the text of the source: active = GI50 up to about 1.1 µM and inactive = higher.

Experiments:
Assay in all cases: inhibition of tumour cell growth, NCI panel, 48 h
CAKI-1 = test system: CAKI-1
SNB-19 = test system: SNB-19
IGROV-1 = test system: IGROV-1
UACC-62 = test system: UACC-62
OVCAR-5 = test system: OVCAR-5
HCT-116 = test system: HCT-116
SF-539 = test system: SF-539
SW-620 = test system: SW-620
EKVX = test system: EKVX
CCRF-CEM = test system: CCRF-CEM
NCI-H460 = test system: NCI-H460
KM12 = test system: KM12
K562 = test system: K562
HCC 2998 = test system: HCC 2998
A549 = test system: A549
LOX IMVI = test system: LOX IMVI
SN12C = test system: SN12C
SK-MEL-5 = test system: SK-MEL-5
SK-MEL-2 = test system: SK-MEL-2
TK-10 = test system: TK-10

| SMILES | GI50 (CAKI-1) | GI50 (SNB-19) | GI50 (IGROV-1) | GI50 (UACC-62) | GI50 (OVCAR-5) | GI50 (HCT-116) | GI50 (SF-539) | GI50 (SW-620) | GI50 (EKVX) | GI50 (CCRF-CEM) | GI50 (NCI-H460) | GI50 (KM12) | GI50 (K562) | GI50 (HCC 2998) | GI50 (A549) | GI50 (LOX IMVI) | GI50 (SN12C) | GI50 (SK-MEL-5) | GI50 (SK-MEL-2) | GI50 (TK-10) |
| --- | --- | --- | --- | --- | --- | --- | --- | --- | --- | --- | --- | --- | --- | --- | --- | --- | --- | --- | --- | --- |
| Nc1ccn(C2OC(COP(=O)(O)Oc3ccccc3)C(O)C2O)c(=O)n1 (stereo not drawn) | 24.5 µM (inactive) | > 59.4 µM (inactive) | > 56.5 µM (inactive) | 56.5 µM (inactive) | > 100 µM (inactive) | 5.57 µM (inactive) | 93.3 µM (inactive) | > 100 µM (inactive) | 13.5 µM (inactive) | 1.01 µM (active) | 2.6 µM (inactive) | > 100 µM (inactive) | > 70.6 µM (inactive) | > 100 µM (inactive) | 3.73 µM (inactive) | 6.61 µM (inactive) | 12.7 µM (inactive) | > 42.9 µM (inactive) | > 100 µM (inactive) | – |
| CN1C(=O)c2ccccc2NC(=O)c2cnn(C)c21 | > 100 µM (inactive) | > 100 µM (inactive) | > 100 µM (inactive) | > 100 µM (inactive) | > 100 µM (inactive) | > 21.6 µM (inactive) | > 100 µM (inactive) | > 100 µM (inactive) | > 100 µM (inactive) | > 100 µM (inactive) | > 100 µM (inactive) | > 100 µM (inactive) | > 100 µM (inactive) | > 100 µM (inactive) | > 100 µM (inactive) | > 100 µM (inactive) | > 100 µM (inactive) | > 100 µM (inactive) | > 100 µM (inactive) | – |
| C/C(CCOC1CCCCO1)=C(\C)[Si](C)(C)C (stereo not drawn) | – | > 100 µM (inactive) | > 100 µM (inactive) | > 100 µM (inactive) | > 100 µM (inactive) | > 100 µM (inactive) | > 100 µM (inactive) | > 100 µM (inactive) | > 100 µM (inactive) | 65.5 µM (inactive) | > 100 µM (inactive) | > 100 µM (inactive) | > 100 µM (inactive) | > 100 µM (inactive) | > 100 µM (inactive) | > 100 µM (inactive) | > 100 µM (inactive) | > 100 µM (inactive) | > 100 µM (inactive) | > 100 µM (inactive) |
| c1cc(CNC2C3CCC(C3)C2c2c[nH]c3ccccc23)cc(CNC2C3CCC(C3)C2c2c[nH]c3ccccc23)c1 (stereo not drawn) | 1.65 µM (inactive) and 1.73 µM (inactive) | 1.41 µM (inactive) and 1.39 µM (inactive) | 1.35 µM (inactive) and 1.59 µM (inactive) | 1.81 µM (inactive) and 1.74 µM (inactive) | 1.84 µM (inactive) and 1.82 µM (inactive) | – | – | – | 1.76 µM (inactive) and 1.58 µM (inactive) | 195 nM (active) and 325 nM (active) | 366 nM (active) and 405 nM (active) | 596 nM (active) and 759 nM (active) | 155 nM (active) and 203 nM (active) | 127 nM (active) and 145 nM (active) | 600 nM (active) and 773 nM (active) | 555 nM (active) and 232 nM (active) | – | 1.85 µM (inactive) and 1.91 µM (inactive) | 1.57 µM (inactive) and 1.91 µM (inactive) | 1.73 µM (inactive) and 1.94 µM (inactive) |
| COc1ccc(N2C(=O)C(=O)C3(CCCCC3)C2=O)c2ccccc12 | > 10 µM (inactive) | > 10 µM (inactive) | > 10 µM (inactive) | > 10 µM (inactive) | > 10 µM (inactive) | > 10 µM (inactive) | > 10 µM (inactive) | > 10 µM (inactive) | > 10 µM (inactive) | > 10 µM (inactive) | > 10 µM (inactive) | > 10 µM (inactive) | > 10 µM (inactive) | > 10 µM (inactive) | > 10 µM (inactive) | > 10 µM (inactive) | > 10 µM (inactive) | > 10 µM (inactive) | > 10 µM (inactive) | > 10 µM (inactive) |
| C[n+]1cccc2c(=O)c3ccccc3oc21 | > 100 µM (inactive) | > 100 µM (inactive) | > 100 µM (inactive) | > 100 µM (inactive) | > 100 µM (inactive) | > 100 µM (inactive) | > 100 µM (inactive) | > 100 µM (inactive) | > 100 µM (inactive) | > 100 µM (inactive) | > 100 µM (inactive) | > 100 µM (inactive) | > 100 µM (inactive) | > 100 µM (inactive) | > 100 µM (inactive) | > 100 µM (inactive) | > 100 µM (inactive) | > 100 µM (inactive) | > 100 µM (inactive) | > 100 µM (inactive) |
